For experiment [1], the target named is α-glucosidase enzyme (from Saccharomyces cerevisiae) (Saccharomyces cerevisiae, UniProt P53341). The experiment in a line: biochemical. The conditions noted are these: substrate 4-nitrophenyl α-D-glucopyranoside, pH 7.0, 37°C; samples 200, 300, 400 μM; mean ± SD of three experiments; read-out: α-Glucosidase inhibitory activity IC50 ± SD. The protocol:
α-Glucosidase inhibitory activity was evaluated as previously reported ([Kilinc et al., 2020]). Briefly, 0.1 M phosphate buffer at pH 7.0 (150 μL) was added to each well; successively 10 μL of samples, dissolved in MeOH at different concentrations (200, 300, and 400 μM) were added; at this point, the reaction was initiated by the addition of 15 μL of the α-glucosidase enzyme (from Saccharomyces cerevisiae) (2 U/mL) in each well, and the plate was incubated for 5 min at 37°C; after 5 min 75 μL of the substrate (2.5 mM) 4-nitrophenyl α-D-glucopyranoside were added, and successively the plate was incubated for 10 min at 37°C. The absorbance was measured at 405 nm before (T0′) and after the incubation with the enzyme (T10′). […] Negative control absorbance (phosphate buffer in place of the sample) was also recorded. Inhibition of the enzyme was calculated, and the results were expressed as IC50 values. All experiments were carried out in triplicate. IC50 values were calculated through non-linear regression using Graphpad Prism 5 Software and expressed as means ± SD (standard deviation). They were considered statistically significant with values of p < 0.05.

Experiment [2] deals with H2O2– and H2O2/Fe2+-induced lipid peroxidation. Set-up: method as in Masullo et al., 2015b. The conditions noted are these: 10 μM; TBARS assay; ref Masullo et al., 2015b; cited from earlier work.
For experiment [3], the system named is Bacillus cereus, Staphylococcus aureus, Escherichia coli and Pseudomonas aeruginosa. On the set-up: method as in Cerulli et al., 2017. The conditions noted are these: 40 μg/disk; tetracycline as positive control; ref Cerulli et al., 2017; cited from earlier work.
Another experiment concerns plasma proteins. On the set-up: method as in Cerulli et al., 2021; Masullo et al., 2021. The conditions noted are these: 10 μM, ref Cerulli et al., 2021, Masullo et al.; cited from earlier work.

By IC50 is commonly meant the concentration needed to halve the response being measured.

Chain of α-glucosidase enzyme (from Saccharomyces cerevisiae) (P53341 whole entry): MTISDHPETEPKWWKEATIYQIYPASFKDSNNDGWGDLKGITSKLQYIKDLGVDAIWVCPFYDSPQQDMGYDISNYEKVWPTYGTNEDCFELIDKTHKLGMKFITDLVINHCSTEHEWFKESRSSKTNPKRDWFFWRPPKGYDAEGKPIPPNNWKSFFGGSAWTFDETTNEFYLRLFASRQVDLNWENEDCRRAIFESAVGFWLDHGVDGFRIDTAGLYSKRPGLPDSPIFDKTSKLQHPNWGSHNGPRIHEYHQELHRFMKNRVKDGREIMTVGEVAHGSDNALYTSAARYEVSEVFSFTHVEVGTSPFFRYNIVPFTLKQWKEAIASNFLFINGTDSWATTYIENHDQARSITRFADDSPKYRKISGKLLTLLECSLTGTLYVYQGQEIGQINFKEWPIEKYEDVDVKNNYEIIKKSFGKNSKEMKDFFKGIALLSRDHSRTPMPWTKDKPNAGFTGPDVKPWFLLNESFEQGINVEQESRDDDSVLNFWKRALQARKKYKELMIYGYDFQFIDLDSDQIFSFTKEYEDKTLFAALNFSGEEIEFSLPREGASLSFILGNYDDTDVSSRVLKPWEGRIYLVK

Regarding `COc1c2cc(c(OC)c1O)Oc1ccc(cc1)CCC(=O)CC/C=C\2` [Giffonin D (4), Giffonin D], in experiment [1], the half-inhibitory concentration (IC50) was found to be 108 ± 6.1 µM. Moreover, in experiment [2], the “reduction of H2O2-induced lipid peroxidation” value is given as “more than 60%” and the “reduction of H2O2/Fe2+-induced lipid peroxidation” value is reported as more than 50%.

In the case of `O=C1CCc2ccc(O)c(c2)-c2cc(ccc2O)CC(OC2OC(CO)C(O)C(O)C2O)CC1O` (stereo not drawn) [Giffonin N (14), Giffonin N], the IC50 in experiment [1] stood at 128 ± 11.3 µM.

For `COc1cc2cc(c1O)Oc1ccc(cc1)CCC(=O)/C=C/C=C/2` [Giffonin S (20), Giffonin S], the 50% inhibitory concentration (IC50) in experiment [1] is 126 ± 8.9 µM.

Turning to `COc1c2cc(c(OC)c1O)Oc1ccc(cc1)[C@@H](O)C[C@@H](O)CC/C=C\2` [Giffonin J (10), Giffonin J], in experiment [1], the IC50 worked out at 56.6 ± 9.6 µM.

Take `COc1c2cc(c(OC)c1O)Oc1ccc(cc1)CCC(=O)CC/C=C/2` [Giffonin A (1), Giffonin A]: the IC50 in experiment [1] amounted to 184 ± 6.9 µM.

With `COc1c2cc(c(OC)c1O)Oc1ccc(cc1)[C@@H](O)CC(=O)CC/C=C/2` [Giffonin B (2), Giffonin B], the IC50 in experiment [1] was 164 ± 5.2 µM.

In the case of `COc1c2cc(c(OC)c1O)Oc1ccc(cc1)CCCC[C@H](O)/C=C\2` [Giffonin E (5), Giffonin E], the IC50 in experiment [1] came out at 167 ± 4.6 µM.

As to `O=C1CCc2ccc(O)c(c2)-c2cc(ccc2O)C[C@H](O)C[C@@H]1O` [Giffonin M (13), Giffonin M], the IC50 in experiment [1] was found to be 114 ± 9.7 µM.

In the case of `O=C1C=CCCc2ccc(OC3OC(CO)C(O)C(O)C3O)c(c2)-c2cc(ccc2OC2OCC(O)C(O)C2O)CC1` (stereo not drawn) [Giffonin I (9), Giffonin I], the IC50 in experiment [1] worked out at 105 ± 4.9 µM.

Regarding `Oc1ccc2cc1-c1cc(ccc1O)C[C@H](O)[C@@H](O)[C@H](O)C[C@@H](O)C2` [Giffonin L (12), Giffonin L], the IC50 in experiment [1] amounted to 172 ± 8.9 µM.

In the case of `O=C1CCc2ccc(OC3OC(CO)C(O)C(O)C3O)c(c2)-c2cc(ccc2O)CC(O)C(O)C1O` (stereo not drawn) [Giffonin T (22), Giffonin T], the IC50 in experiment [1] amounted to 131 ± 6.1 µM.

On to `O=C1/C=C/C=C/c2ccc(O)c(c2)Oc2ccc(cc2)CC1` [Giffonin R (19), Giffonin R], for which the IC50 in experiment [1] was determined as 128 ± 6.1 µM.

Regarding `O=C1CCc2ccc(O)c(c2)-c2cc(ccc2O)C[C@H](O)[C@H](O)[C@H]1O` [Carpinontriol B (24), Carpinontriol B], the zones of inhibition entry in experiment [3] is listed as “completely comparable to those obtained with tetracycline”. In addition, in experiment [1], the IC50 is 107 ± 6.1 µM.

On to `COc1c2cc(c(OC)c1O)Oc1ccc(cc1)CC[C@H](O)CC/C=C\2` [Giffonin C (3), Giffonin C], for which the half-maximal inhibitory concentration (IC50) in experiment [1] is 105 ± 6.9 µM.

`O=C1CCc2ccc(O)c(c2)-c2cc(ccc2O)CC[C@@H](O)[C@H]1O` [Giffonin V (25), Giffonin V]: the IC50 in experiment [1] came to 123 ± 4.4 µM.

`O=C(CCc1ccc(O)c(O)c1)C[C@H](CCc1ccc(O)c(O)c1)O[C@@H]1OC[C@@H](O)[C@H](O)[C@H]1O` [Oregonin (17), Oregonin]: the IC50 in experiment [1] is 144 ± 7.2 µM.

Consider `COc1c2cc(c(OC)c1O)Oc1ccc(cc1)[C@@H](O)C[C@@H](O)/C=C/C=C\2` [Giffonin K (11), Giffonin K], for which, in the experiment on plasma proteins, the “reduction of oxidation of thiol groups and carbonylation in plasma proteins” value is “most active compounds”. The IC50 in experiment [1] is 70 ± 3.1 µM.

Consider `COc1c2cc(c(OC)c1O)Oc1ccc(cc1)CC[C@H](O)/C=C/C=C\2` [Giffonin G (7), Giffonin G], for which, in the experiment with plasma proteins, the “reduction of oxidation of thiol groups and carbonylation in plasma proteins” value was “most active compounds”. Further, the 50% inhibitory concentration (IC50) in experiment [1] is 108 ± 9.2 µM.

Take `COc1c2cc(c(OC)c1O)Oc1ccc(cc1)CCC(=O)C[C@H](O)/C=C\2` [Giffonin F (6), Giffonin F]: in experiment [1], the IC50 was found to be 146 ± 4.3 µM.

With `Oc1ccc2cc1-c1cc(ccc1O)C[C@H](O)[C@H](O)C(O)[C@@H](O)[C@H](O)C2` (stereo partly drawn) [Giffonin P (16), Giffonin P], the IC50 in experiment [1] was 55.3 ± 7.7 µM.

Regarding `O=C1/C=C/CCc2ccc(O)c(c2)-c2cc(ccc2O)CC1` [Alnusone (21), Alnusone], the IC50 in experiment [1] is 154 ± 8.3 µM.

As for `COc1c(O)cc2cc1Oc1ccc(cc1)CC[C@H](O)/C=C/C=C\2` [Giffonin H (8), Giffonin H], the IC50 in experiment [1] was 109 ± 2.9 µM. Also, in experiment [2], the “reduction of H2O2-induced lipid peroxidation” value is reported as “more than 60%” and the “reduction of H2O2/Fe2+-induced lipid peroxidation” value is more than 50%.

Consider `O=C1Cc2ccc(O)c(c2)-c2cc(ccc2O)C[C@@H](O)[C@@H](O)[C@@H](O)[C@H]1O` [Giffonin U (23), Giffonin U], for which, in experiment [3], the zones of inhibition entry is on record as “completely comparable to those obtained with tetracycline”. Also, in experiment [1], the IC50 came to 175 ± 9.8 µM.

In the case of `O=C1C[C@@H](O)Cc2ccc(O)c(c2)-c2cc(ccc2O)C[C@H](O)[C@H]1O` [Giffonin O (15), Giffonin O], the IC50 in experiment [1] amounted to 124 ± 11.1 µM.

On to `O=C1/C=C/CCc2ccc(O)c(c2)Oc2ccc(cc2)CC1` [Giffonin Q (18), Giffonin Q], for which the half-inhibitory concentration (IC50) in experiment [1] stood at 127 ± 5.9 µM.

The record behind these values is PMC8882611, “Corylus avellana: A Source of Diarylheptanoids With α-Glucosidase Inhibitory Activity Evaluated by in vitro and in silico Studies” (Frontiers in Plant Science, 2022).
